# Test results published in patent US20230172923A1, “METHODS OF TREATING CYTOKINE-RELATED ADVERSE EVENTS” (BRISTOL-MYERS SQUIBB COMPANY, priority 2020, published 2023).
# “Also recorded” adds a separate entry of the source.
# Columns and labels:
# Type in all cases: cell-based, human
# IL-6 [1] = test: LPS-induced IL-6 secretion from monocytes with nigericin (MSD); conditions: overnight 1 nM, 10 nM or 100 nM Compound 1; LPS 4 hours, then 5 µg/ml nigericin 1 hour
# Method: Monocytes from healthy volunteers were seeded at a concentration of 1×10^6 cells/ml and treated with the indicated concentration of Compound 1 overnight. The next morning, the monocytes were incubated with the indicated concentration of LPS for 4 hours, and then stimulation with 5 ug/ml of nigericin for 1 hour, before IL-6 levels in the supernatant were assessed using an MSD assay.
# Monocytes from two healthy human donors were isolated as in Example 1. Here isolated monocytes (1×10^6 cells/ml) were treated with various concentrations of Compound 1 (1 nM, 10 nM, or 100 nM), or control DMSO (0.001%), overnight (~17 hours) before stimulation with various concentrations of LPS.
# After 4 hours, 5 µg/ml of nigericin was added to activate the inflammasome for 1 hour, supernatants were harvested, and MSD analysis was performed to quantify secreted IL-6.
# IL-2 = test: CC-93269-induced IL-2 secretion, co-culture of PBMCs and K562-BCMA cells (MSD); conditions: Compound 1 pre-treatment; 24 hours
# Method: Co-cultures of PBMCs, target K562-BCMA cells and CC-93269 were prepared as for FIG. 9. At 6-, 24- and 48-hours post-incubation, the cell culture media was collected and levels of TNF-alpha (FIG. 12A) and IL-2 (FIG. 12B) in the supernatant were assessed using an MSD assay. ULOQ = Upper limit of quantification.
# Fresh PBMCs were isolated from the blood (buffy coat) of healthy human volunteers by Ficoll based cell separation. The percentage of CD3+ T-cells (total) in the PBMCs was quantified by flow cytometry. The isolated PBMCs were seeded in 12-well plates at a concentration of 1.5×10^6 cells/ml and treated with 1 nM Compound 1 (CC-92480), 1000 nM lenalidomide, 100 nM pomalidomide, 10 nM iberdomide, or control DMSO overnight (~17 hours).
# After overnight incubation, target K562-BCMA cells (overexpress surface BCMA at a very high level) or control K562-MCB cells (no BCMA expression) were added to the wells at a ratio of 5:1, T-cells to target cells. K562-BCMA and K562-MCB are an isogenic pair that are derived from a chronic myelogenous leukemia (CML,) cell line. CC-93269 was added to the co-culture at various concentrations and incubated. CC-93269 is an anti-BCMA anti-CD3 bispecific T cell-engaging antibody and is also referred to herein as 42-TCBcv.
# IL1-beta = test: CC-93269-induced IL1-beta secretion, co-culture of PBMCs and K562-BCMA cells (MSD)
# Method: Co-cultures of PBMCs, target K562-BCMA cells and CC-93269 were prepared as for FIG. 9. At 6-, 24- and 48-hours post-incubation, the cell culture media was collected and levels of IL1-beta in the supernatant were assessed using an MSD assay (FIG. 13A). […] The circles indicate independent donors and the bars indicate median values; not all donors are shown because a data cut-off for the bottom ~10% of IL1-beta concentrations, below 100 pg/ml, was used to eliminate small changes that could skew the result and to increase confidence in results.
# (§1) Fresh PBMCs were isolated from the blood (buffy coat) of healthy human volunteers by Ficoll based cell separation. The percentage of CD3+ T-cells (total) in the PBMCs was quantified by flow cytometry. The isolated PBMCs were seeded in 12 well plates at a concentration of 1.5×10^6 cells/ml and treated with 1 nM Compound 1 (CC-92480) or control DMSO overnight (~17 hours). After overnight incubation, target K562-BCMA cells were added to the wells at a ratio of 5:1, T-cells to target cells, followed by incubation with CC-93269 at various concentrations. […]
# (§2) At 6, 24 and 48 hours post-incubation, the cell culture media was collected from all samples, spun down at 300 g for 5 minutes to remove cells and the supernatant was subjected to cytokine analysis to quantify secreted levels of IL1-beta using an MSD assay.
# IL-6 [2] = test: CC-93269-induced IL-6 secretion, co-culture of PBMCs and H929 multiple myeloma cells (MSD); conditions: 1 nM Compound 1 pre-treatment overnight, washed out; two donors
# Method: Fresh PBMCs were isolated from healthy volunteers, the percentage of CD3+ T-cells (total) was quantified by flow cytometry, and the PBMCs were treated with 1 nM Compound 1 (CC-92480) or control DMSO overnight. The next morning, target H929 cells were added to the wells at a ratio of 5:1, T-cells to target cells, followed by addition of CC-93269 at indicated concentrations. At 6-, 24- and 48-hours post-incubation, the cell culture was collected and levels of IL-6 in the supernatant were assessed using an MSD assay.
# as §1, with “of” for “of healthy”, “incubation, the cells were washed to remove CC-92480, before” for “incubation,”, “H929” for “K562-BCMA”, “cells.” for “cells, followed by incubation with CC-93269 at various concentrations.”
# as §2, with “The co-culture was then incubated with CC-93269 at various concentrations. At” for “At”, “IL-6” for “IL1-beta”, “assay. […]” for “assay.”
# IL-8 = test: LPS-stimulated PBMC cytokine production, multiplex cytokine analysis: IL-8; conditions: Homo sapiens; PBMC 2×10^6 cells/ml, compound 1 hour, then 1 ng/ml LPS 18 hours
# Method: (§3) Peripheral blood mononuclear cells (PBMCs) were isolated from the blood of healthy human donors by Ficoll cell separation. The PBMCs were seeded at a concentration of 2×10^6 cells/ml and treated for 1 hour at 37° C. with various concentrations of IMiD compounds or control DMSO (0.25%), before stimulation with 1 ng/ml LPS for 18 hours at 37° C.
# (§4) Supernatant samples were subjected to multiplex cytokine analysis (Luminex IS100 instrument) to quantify secreted levels of IL-6, IL-8, IL1-beta (IL-1β), GM-CSF, MDC, MIP-1alpha (MIP-1α), MIP-1beta (MIP-1β) and TNF-alpha (TNF-α) (see e.g. FIGS. 7A-C).
# (§5) IC50 (half maximal inhibitory concentration) values were calculated to measure the potency of each IMiD compound in inhibiting LPS-stimulated secretion of each cytokine (see Table 25).
# MIP-1α = test: LPS-stimulated PBMC cytokine production, multiplex cytokine analysis: MIP-1α; conditions: Homo sapiens, PBMC, PBMC 2×10^6 cells/ml, compound 1 hour, then 1 ng/ml LPS 18 hours
# Method: as §3, §4, §5
IC50 (IL-8) [µM],IC50 (MIP-1α) [µM],Structure (SMILES),LPS-induced IL-6 secretion from monocytes (IL-6 [1]),CC-93269-induced IL-2 secretion from PBMCs with K562 target cells (IL-2),"secretion of IL1-beta associated with CC-93269 activity, PBMCs + K562-BCMA (IL1-beta; 1 nM Compound 1 pre-treatment overnight)","median reduction in IL1-beta levels relative to DMSO control (IL1-beta; Compound 1 pre-treatment, 10 ng/ml CC-93269, 24 hours, PBMCs from 15 healthy donors)","secretion of IL-6 associated with CC-93269 activity, PBMCs + multiple myeloma cells (H929) (IL-6 [2])"
–,–,"N#Cc1ccc(N2CCN(Cc3ccc(COc4cccc5c4CN(C4CCC(=O)NC4=O)C5=O)cc3)CC2)c(F)c1 (stereo not drawn) [Compound 1, 4-(4-(4-(((2-(2,6-dioxopiperidin-3-yl)-1-oxoisoindolin-4-yl)oxy)methyl)benzyl)piperazin-l-yl)-3-fluorobenzonitrile]",diminished,potentiates,diminished/attenuated; also recorded: suppressed,ten-fold,diminished/attenuated
> 10,0.028,"O=C1CC[C@H](N2Cc3c(OCc4ccc(CN5CCOCC5)cc4)cccc3C2=O)C(=O)N1 [Iberdomide, (S)-3-(4-((4-(morpholinomethyl)benzyl)oxy)-1-oxoisoindolin-2-yl)piperidine-2,6-dione]",–,–,–,–,–
> 10,> 10,"Nc1cccc2c1CN(C1CCC(=O)NC1=O)C2=O (centres unmarked) [Lenalidomide, 3-(4-amino-1-oxo-2,3-dihydro-1H-isoindol-2-yl) piperidine-2,6-dione]",–,–,–,–,–
2.9,0.23,"Nc1cccc2c1C(=O)N(C1CCC(=O)NC1=O)C2=O (centres unmarked) [Pomalidomide, 4-amino-2-(2,6-dioxopiperidine-3-yl)isoindoline-1,3-dione]",–,–,–,–,–
